Experimental data: EP4342885A1, “N-(3-(AMINOMETHYL)-PHENYL)-5-(4-PHENYL)-5-(TRIFLUOROMETHYL)-4,5-DIHYDROISOXAZOL-3-AMINE DERIVATIVES AND SIMILAR COMPOUNDS AS PESTICIDES” (priority 2022, dated 2024)

Key:
Type in all cases: in vivo
Anthonomus grandis = experiment: Boll weevil (Anthonomus grandis) control, 96-well microtiter plate insect diet with eggs; details: 120 h, read-out: mortality in comparison with untreated controls
Protocol: For evaluating control of boll weevil, the test unit consisted of 96-well-microtiter plates containing an insect diet and 5-10 A. grandis eggs.
The compounds were formulated using a solution containing 75% v/v water and 25% v/v DMSO. Different concentrations of formulated compounds were sprayed onto the insect diet at 5µl, using a custom-built micro atomizer, at two replications.
After application, microtiter plates were incubated at about 25 ± 1°C and about 75 ± 5 % relative humidity for 5 days. Egg and larval mortality were then visually assessed.

Plutella xylostella = experiment: Diamond back moth (Plutella xylostella) control, 96-well microtiter plate insect diet with eggs; details: 120 h, read-out: mortality in comparison with untreated controls
Protocol: For evaluating control of […] (Plutella xylostella) the test unit consisted of 96-well-microtiter plates containing an insect diet and 15-25 P. xylostella eggs.
The compounds or mixtures were formulated using a solution containing 75% water and 25% DMSO. Different concentrations of formulated compounds or mixtures were sprayed onto the insect diet at 5µl, using a custom-built micro atomizer, at two replications.
After application, microtiter plates were incubated at 28 ± 1°C, 80 ± 5 % RH for 5 days. Egg and larval mortality was then visually assessed.

Myzus persicae = experiment: Green peach aphid (Myzus persicae), mixed life stages, systemic test via artificial diet under membrane; details: 72 h, read-out: mortality in comparison with untreated controls
Text: For evaluating control of Green Peach Aphid through systemic means the test unit consisted of 96-well-microtiter plates containing liquid artificial diet under an artificial membrane. The compounds were formulated using a solution containing 75% v/v water and 25% v/v DMSO. Different concentrations of formulated compounds were pipetted into the aphid diet, using a custom-built pipette, at two replications. After application, 5 - 8 adult aphids were placed on the artificial membrane inside the microtiter plate wells. The aphids were then allowed to suck on the treated aphid diet and incubated at about 23 ± 1°C and about 50 ± 5 % relative humidity for 3 days. Aphid mortality and fecundity was then visually assessed.

Aedes aegypti = experiment: whole plant or invertebrate; details: 48 h, larval mortality, 2 days, read-out: mortality in comparison with untreated controls
Protocol: For evaluating control of Yellow Fever Mosquito, the test unit consisted of 96-well-microtiter plates containing 200µl of tap water per well and 5-15 freshly hatched A. aegypti larvae. The active compounds were formulated using a solution containing 75% (v/v) water and 25% (v/v) DMSO. Different concentrations of formulated compounds or mixtures were sprayed onto the insect diet at 2.5µl, using a custom-built micro atomizer, at two replications.
After application, microtiter plates were incubated at 28 ± 1°C, 80 ± 5 % RH for 2 days. Larval mortality was then visually assessed.

Heliothis virescens = experiment: Tobacco budworm (Heliothis virescens) control, 96-well microtiter plate insect diet with eggs; details: 120 h, read-out: mortality in comparison with untreated controls
Protocol: For evaluating control of Tobacco Budworm, the test unit consisted of 96-well-microtiter plates containing an insect diet and 15-25 H. virescens eggs. The compounds were formulated using a solution containing 75% v/v water and 25% v/v DMSO. Different concentrations of formulated compounds were sprayed onto the insect diet at 10µl, using a custom-built micro atomizer, at two replications. After application, microtiter plates were incubated at about 28 ± 1°C and about 80 ± 5 % relative humidity for 5 days. Egg and larval mortality was then visually assessed.

Measured: mortality at 800 ppm

O=C(NCc1cc(NC2=NOC(c3cc(Cl)c(F)c(Cl)c3)(C(F)(F)F)C2)ccc1Cl)C1CC1 (stereo not drawn) [I-14]
≥ 75%: all assays above

O=C(NCc1cc(NC2=NOC(c3ccc(F)c(Cl)c3)(C(F)(F)F)C2)ccc1Cl)C1CC1 (stereo not drawn) [I-21]
≥ 75%: all assays above

O=C(NCc1cc(NC2=NOC(c3cc(Cl)c(F)c(Cl)c3)(C(F)(F)F)C2)ccc1F)C1CC1 (stereo not drawn) [I-16]
≥ 75%: all assays above

O=C(NCc1cc(NC2=NOC(c3ccc(F)c(Cl)c3)(C(F)(F)F)C2)ccc1Cl)C1CC1(F)F (stereo not drawn) [I-48]
≥ 75%: all assays above

O=C(NCc1cc(OC2=NOC(c3cc(Cl)c(F)c(Cl)c3)(C(F)(F)F)C2)ccc1F)C1CC1 (stereo not drawn) [I-22]
≥ 75%: all assays above

CC(C)C(=O)NCc1cc(NC2=NOC(c3ccc(F)c(Cl)c3)(C(F)(F)F)C2)ccc1Cl (stereo not drawn) [I-25]
≥ 75%: all assays above

O=C(NCc1cc(NC2=NOC(c3ccc(F)c(Cl)c3)(C(F)(F)F)C2)ccc1Cl)C1CSC1 (stereo not drawn) [I-45]
≥ 75%: all assays above

CC(C)CC(=O)NCc1cc(NC2=NOC(c3ccc(F)c(Cl)c3)(C(F)(F)F)C2)ccc1Cl (stereo not drawn) [I-28]
≥ 75%: all assays above

O=C(NCc1cc(NC2=NOC(c3cc(Cl)cc(Cl)c3)(C(F)(F)Cl)C2)ccc1F)C1CC1 (stereo not drawn) [I-43]
≥ 75%: all assays above
